IC50, bioavailability and Inhibition data for 22 molecules are collected here from ChEMBL document CHEMBL1133928, “Design and synthesis of glycolic and mandelic acid derivatives as factor Xa inhibitors” (Bioorg Med Chem Lett, 2001).

One data set has as its target Prothrombin (Homo sapiens, UniProt P00734). Description: In vitro inhibitory activity against thrombin.
A further data set has as its target Coagulation factor X (Homo sapiens, UniProt P00742). Put plainly: In vitro inhibitory activity against coagulation factor X.
The nature of data set [1]: Oral bioavailability in rat. In kind it is ADME, organism-based. To be noted: in vivo.
The subject of data set [2] is Oryctolagus cuniculus. Put plainly: Antithrombotic effect (Inhibition of thrombus formation) in a rabbit deep vein thrombosis model at 0.132 uM plasma concentration following iv administration. The format is functional.
The target of the next data set is Serine protease 1 (Homo sapiens, UniProt P07477). Description: In vitro inhibitory activity against trypsin.
Serine protease 1, sequence (P07477 whole entry): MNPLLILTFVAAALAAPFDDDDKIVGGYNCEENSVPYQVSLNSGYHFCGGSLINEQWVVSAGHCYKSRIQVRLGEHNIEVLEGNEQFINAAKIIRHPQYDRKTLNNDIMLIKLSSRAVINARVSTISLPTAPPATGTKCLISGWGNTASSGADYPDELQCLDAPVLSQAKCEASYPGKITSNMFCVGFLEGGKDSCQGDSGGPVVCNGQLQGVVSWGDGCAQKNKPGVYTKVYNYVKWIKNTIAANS
Data set [3] deals with Oryctolagus cuniculus. Description: Antithrombotic effect (Inhibition of thrombus formation) in a rabbit deep vein thrombosis model at 1.1 uM plasma concentration following iv administration. The format is functional.

Broadly, the IC50 is the concentration at which inhibition is half-maximal. Read a low IC50 as greater potency. By bioavailability is commonly meant the share of a dose that reaches the circulation, judged against a reference dose that is usually intravenous. As a reminder, the Inhibition is the share of the control response that was lost under treatment. A high value points to a response far below the control.

Coagulation factor X, sequence (P00742 41-179 limits assumed): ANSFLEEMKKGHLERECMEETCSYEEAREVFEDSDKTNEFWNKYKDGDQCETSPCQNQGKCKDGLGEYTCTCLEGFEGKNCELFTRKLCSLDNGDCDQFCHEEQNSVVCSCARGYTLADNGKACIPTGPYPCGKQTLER
Coagulation factor X, sequence (P00742 235-488 limits assumed): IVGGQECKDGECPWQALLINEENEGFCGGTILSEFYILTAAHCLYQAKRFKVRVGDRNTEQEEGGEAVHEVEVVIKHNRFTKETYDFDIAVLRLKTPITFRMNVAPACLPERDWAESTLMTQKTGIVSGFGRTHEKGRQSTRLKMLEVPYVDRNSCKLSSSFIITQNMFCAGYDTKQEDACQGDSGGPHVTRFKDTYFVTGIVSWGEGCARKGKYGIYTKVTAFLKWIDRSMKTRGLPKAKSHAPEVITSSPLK

Turning to `N=C(N)c1cccc(OC(C(=O)Nc2ccc(-c3ccccc3S(N)(=O)=O)cc2)c2ccccc2)c1` (centres undefined), the IC50 against Prothrombin is more than 10000 nM; at Coagulation factor X, 0.55 nM; on Serine protease 1, 1250 nM. Besides, the bioavailability in data set [1] is 5%. In addition, the Inhibition in the data set with Oryctolagus cuniculus [2] worked out at 56%.
Take `N=C(N)c1cccc(OCC(=O)Nc2ccc(C(=O)N3CCC3)cc2)c1`: the half-maximal inhibitory concentration (IC50) is more than 10000 nM on Prothrombin, 227 nM on Coagulation factor X and 2050 nM against Serine protease 1.
For `N=C(N)c1ccc(O)c(OCC(=O)Nc2ccc(C(=O)N3CCCC3)cc2)c1`, in that order: more than 10000 nM, 0.7 nM and 283 nM.
For `N=C(N)c1cccc(OC(C(=O)Nc2ccc(-c3ccccc3S(N)(=O)=O)cc2Br)c2ccccc2)c1` (centres undefined), in that order: 8640 nM, 3.2 nM and 4000 nM.
For `N=C(N)c1cccc(OC(C(=O)Nc2cc(Cl)c(-n3cccc3)cc2Cl)c2ccccc2)c1` (centres undefined), the IC50 against Prothrombin stood at 4090 nM; at Coagulation factor X it was 93 nM; at Serine protease 1, 8780 nM.
For `N=C(N)c1cccc(OCC(=O)Nc2ccc(-c3ccccc3S(N)(=O)=O)cc2)c1`, in that order: more than 10000 nM, 21 nM and 3370 nM.
For `N=C(N)c1ccc(O)c(OCC(=O)Nc2ccc(-c3ccccc3S(N)(=O)=O)cc2)c1`, in that order: more than 10000 nM, 2.2 nM and 2290 nM.
On the same counts, the results for `N=C(N)c1cccc(OCC(=O)Nc2ccc(C(=O)N3CCOCC3)cc2)c1` are more than 10000 nM, 1120 nM and more than 10000 nM.
Turning to `N=C(N)c1cccc(OCC(=O)Nc2ccc(C(=O)N3CCCC3)cc2)c1`, the results for the 50% inhibitory concentration (IC50) at Prothrombin, against Coagulation factor X and against Serine protease 1 were more than 10000 nM, 66 nM and 2700 nM, respectively.
For `N=C(N)c1cccc(OCC(=O)Nc2ccc(C(=O)N3CCCCCC3)cc2)c1`, in that order: more than 10000 nM, 1190 nM and more than 10000 nM.
For `N=C(N)c1cccc(OC(C(=O)Nc2ccc(N3CCOCC3)c(F)c2)c2ccccc2)c1` (centres undefined), the IC50 on Coagulation factor X came out at 4.4 nM.
On to `CC(C)(C)OC(=O)C1CCCN1C(=O)c1ccc(NC(=O)COc2cccc(C(=N)N)c2)cc1` (centres undefined), for which the IC50 at Prothrombin was more than 10000 nM; at Coagulation factor X, 2930 nM; against Serine protease 1 it was 6640 nM.
For `CN1CCN(C(=O)c2ccc(NC(=O)COc3cccc(C(=N)N)c3)cc2)CC1`, in that order: more than 10000 nM, more than 10000 nM and more than 10000 nM.
Take `N=C(N)c1cccc(OC(C(=O)Nc2ccc(C(=O)N3CCCC3)cc2)c2ccccc2)c1` (centres undefined): the 50% inhibitory concentration (IC50) against Coagulation factor X is 0.18 nM; on Serine protease 1, 174 nM. Also, the bioavailability in data set [1] was determined as 5%. The molecule also registered an Inhibition in the data set on Oryctolagus cuniculus [3] of 81%.
As for `N=C(N)c1cccc(OC(C(=O)Nc2ccc(-n3ccc(C(F)(F)F)n3)cc2)c2ccccc2)c1` (centres undefined), the IC50 against Prothrombin was more than 10000 nM; on Coagulation factor X, 170 nM; at Serine protease 1, more than 10000 nM.
On to `N=C(N)c1cccc(OCC(=O)Nc2ccc(C(=O)N3CC=CC3)cc2)c1`, for which the IC50 was more than 10000 nM against Prothrombin, 6.3 nM against Coagulation factor X and 875 nM against Serine protease 1.
Regarding `N=C(N)c1cccc(OCC(=O)Nc2ccc(C(=O)N3CCCCC3)cc2)c1`, the IC50 at Prothrombin and against Serine protease 1 was more than 10000 nM throughout.
`N=C(N)c1cccc(OC(C(=O)Nc2ccc(-n3cnc(Cl)c3Cl)cc2)c2ccccc2)c1` (centres undefined): the half-inhibitory concentration (IC50) against Coagulation factor X was determined as 14 nM; at Serine protease 1 it was 5330 nM.
For `N=C(N)c1cccc(OC(C(=O)Nc2ccc(-c3ccccc3S(N)(=O)=O)cc2F)c2ccccc2)c1` (centres undefined), the IC50 at Prothrombin is more than 10000 nM; on Serine protease 1, 9820 nM.
Turning to `N=C(N)c1cccc(OCC(=O)Nc2ccc(C(=O)N3CCCC3C(=O)O)cc2)c1` (centres undefined), the half-inhibitory concentration (IC50) against Prothrombin, at Coagulation factor X and at Serine protease 1 was more than 10000 nM in each case.
Take `N=C(N)c1cccc(OCCC(=O)Nc2ccc(-c3ccccc3S(N)(=O)=O)cc2)c1`: the IC50 at Prothrombin was more than 10000 nM; against Coagulation factor X, 6.4 nM; on Serine protease 1 it was 2570 nM.
On the same counts, the results for `N=C(N)c1cccc(OC(C(=O)Nc2ccc(C(=O)N3CCCC3)cc2Br)c2ccccc2)c1` (centres undefined) are more than 10000 nM, 0.99 nM and 521 nM.
